From patent US20150164910A1, “ANTIVIRAL COMPOUNDS AND METHODS OF USE” (The Regents of the University of Califonia, priority 2012, published 2015)

Assays:
CVB3-H3 = test: Plaque reduction assay, CVB3-H3 in HeLa-RW cells; assay type: cell-based, coxsackievirus B3; conditions: compound added 30 min before infection, CVB3-H3 MOI 1, HeLa-RW, 6 hours; log10(titer with DMSO only/titer with inhibitor)
[1] = tested on: eGFP-expressing recombinant CVB3; assay type: cell-based, coxsackievirus B3; conditions: for Inhibition of infected cells: eGFP-CVB3 m.o.i=1, compound added at time of infection, 6 hr post infection, 1-(% eGFP+ cells with compound/% with DMSO only)

Compound | Log10 reduction of virus titer (CVB3-H3) | Inhibition of infected cells [1] [%] | % of eGFP + cells, 0 Hr ([1]; compound added 0 hr post infection at its peak activity concentration, read 6 hr post infection, DMSO 26.0) [%] | % of eGFP + cells, 1 Hr ([1]; compound added 1 hr post infection at its peak activity concentration, read 6 hr post infection, DMSO 23.7) [%] | % of eGFP + cells, 2 Hr ([1]; compound added 2 hr post infection at its peak activity concentration, read 6 hr post infection, DMSO 24.8) [%]
CCn1ncc2c(C(=O)Nc3ccc(C)c(S(N)(=O)=O)c3)cc(-c3cccs3)nc21 [Compound 19, 1-Ethyl-N-(4-methyl-3-sulfamoylphenyl)-6-(2-thienyl)-1H-pyrazolo[3,4-b] pyridine-4-carboxamide] | 4.3 | 100 |  |  | 
CC(=O)c1c(C)nc2ccc(Cl)cc2c1-c1ccccc1 [Compound 31, 1-(6-Chloro-2-methyl-4-phenyl-3-quinolinyl)ethanone] | 3.8 | 94.5 |  |  | 
O=C(N/N=C1/c2ccccc2-c2nc3ccccc3nc21)c1cccnc1 [Compound 51, N′-[(11Z)-11H-Indeno[1,2-b]quinoxalin-11-ylidene] nicotinohydrazide] | 0.1 | 1.6 |  |  | 
CCC(C)(C)Nc1c(-c2ccc(OC)c(CN3CCOCC3)c2)nc2cnccn12 [Compound 60, 2-[4-Methoxy-3-(4-morpholinylmethyl)phenyl]-N-(2-methyl-2-butanyl) imidazo[1,2-a]pyrazin-3-amine] | 1.8 | 100 |  |  | 
Cc1ccc2cc(CN(Cc3ccc(F)cc3)C(=O)c3cccs3)c(=O)[nH]c2c1C [Compound 37, N-[(7,8-Dimethyl-2-oxo-1,2-dihydro-3-quinolinyl)methyl]-N-(4-fluorobenzyl)-2-thiophene-carboxamide] | 4.2 | 99.7 |  |  | 
CCS(=O)(=O)c1ccc(NC(=O)c2cc(-c3ccccc3)nc3ccccc23)cc1 [Compound 27, N-[4-(Ethylsulfonyl)phenyl]-2-phenyl-4-quinoline-carboxamide] | 3.4 | 89.6 |  |  | 
COc1cccc(NC(=O)c2cc(-c3cccs3)nc3c2cnn3C(C)C)c1 [Compound 8, 1-Isopropyl-N-(3-methoxyphenyl)-6-(2-thienyl)-1H-pyrazolo [3,4-b]pyridine-4-carboxamide] | 4.4 | 99.2 |  |  | 
COc1ccc(-c2csc3ncn(CC(=O)c4ccc5c(c4)OCO5)c(=O)c23)cc1OC [Compound 54, 3-[2-(1,3-Benzodioxol-5-yl)-2-oxoethyl]-5-(3,4-dimethoxyphenyl) thieno[2,3-d]pyrimidin-4 (3H)-one] | 3.2 | 87.6 |  |  | 
Cc1cc(F)ccc1NC(=O)c1cc(-c2cccs2)nc2c1cnn2C(C)C [Compound 4, N-(4-Fluoro-2-methylphenyl)-1-isopropyl-6-(2-thienyl)-1H-pyrazolo[3,4-b] pyridine-4-carboxamide] | 4.5 | 100 |  |  | 
CC(C)n1ncc2c(C(=O)Nc3cccc(S(C)(=O)=O)c3)cc(-c3cccs3)nc21 [Compound 10, 1-lsopropyl-N-[3-(methylsulfonyl)phenyl]-6-(2-thienyl)-1H-pyrazolo [3,4-b]pyridine-4-carboxamide] | 4.4 | 100 |  |  | 
Cn1ccc(NC(=O)c2cc(-c3cccs3)nc3ccccc23)n1 [Compound 32, N-(1-Methyl-1H-pyrazol-3-yl)-2-(2-thienyl)-4-quinoline-carboxamide] | 4.0 | 100 |  |  | 
Cc1ccc(NC(=O)c2cc(-c3cccs3)nc3c2cnn3C(C)C)c(F)c1 [Compound 5, N-(2-Fluoro-4-methylphenyl)-1-isopropyl-6-(2-thienyl)-1H-pyrazolo[3,4-b] pyridine-4-carboxamide] | 4.4 | 99.3 |  |  | 
1-Isopropyl- N,6-diphenyl-1H- pyrazolo[3,4-b] pyridine- 4-carboxamide [Compound 16] | 4.5 | 100 | 0.0 | 0.1 | 0.0
CC(C)n1ncc2c(C(=O)Nc3cccc(-c4nnc5n4CCCCC5)c3)cc(C3CC3)nc21 [Compound 14, 6-Cyclopropyl-1-isopropyl-N-[3-(6,7,8,9-tetrahydro-5H-[1,2,4]triazolo [4,3-a]azepin-3-yl)phenyl]-1H-pyrazolo [3,4-b]pyridine-4-carboxamide] | 3.3 | 100 |  |  | 
Cc1nc2ccccc2c2c(NC(=O)c3cnccn3)c3ccccc3n12 [Compound 50, N-(6-Methylindolo [1,2-c]quinazolin-12-yl)-2-pyrazinecarboxamide] | 2.5 | 69.9 |  |  | 
CC(C)c1cc(C(=O)Nc2ccccc2N2CCN(C)CC2)c2cnn(C(C)C)c2n1 [Compound 15, 1,6-Diisopropyl-N-[2-(4-methyl-1-piperazinyl)phenyl)-1H-pyrazolo[3,4-b]pyridine-4-carboxamide] | 2.4 | 100 |  |  | 
Cc1ccc(S(C)(=O)=O)cc1NC(=O)c1cc(C2CC2)nc2c1cnn2C(C)C [Compound 12, 6-Cyclopropyl-1-isopropyl-N-[2-methyl-5-(methylsulfonyl)phenyl]-1H-pyrazolo[3,4-b] pyridine-4-carboxamide] | 4.2 | 100 |  |  | 
COc1ccc(/N=c2\oc3ccccc3cc2C(=O)NCC2CCCO2)cc1 (centres unmarked) [Compound 62, (2Z)-2-[(4-Methoxyphenyl)imino]-N-(tetrahydro-2-furanylmethyl)-2H-chromene-3-carboxamide] | 1.5 | 90.4 |  |  | 
Cc1nc(-c2cccc(NS(=O)(=O)c3ccc4c(c3)CCC(=O)N4)c2)cs1 [Compound 38, N-[3-(2-Methyl-1,3-thiazol-4-yl)phenyl]-2-oxo-1,2,3,4-tetrahydro-6-quinoline-sulfonamide] | 0.9 | 59.1 |  |  | 
Cl.Cl.OCCN1CCN(CC/C=C2/c3ccccc3Sc3ccc(C(F)(F)F)cc32)CC1 [Compound 70, 2-(4-{(3Z)-3-[2-(Trifluoromethyl)-9H-thioxanthen-9-ylidene]propyl}-1-piperazinyl)ethanol dihydrochloride, reference compound] | 3.9 | 99.6 |  |  | 
O=C(CCCc1nc(-c2ccccc2)no1)N1CCN(C2CCCCC2)C(=O)C1 [Compound 69, 1-Cyclohexyl-4-[4-(3-phenyl-1,2,4-oxadiazol-5-yl)butanoyl]-2-piperazinone] | 2.0 | 96.5 |  |  | 
NC1=Nc2nc3ccccc3n2C(c2ccc3ccccc3c2)N1 (centres unmarked) [Compound 67, 4-(2-Naphthyl)-1,4-dihydro[1,3,5] triazino[1,2-a]benzimidazol-2-amine] | 1.9 | 67.7 |  |  | 
COc1ccc2nc(C)n3c4ccccc4c(NC(C)=O)c3c2c1 [Compound 49, N-(2-Methoxy-6-methylindolo[1,2-c]quinazolin-12-yl)acetamide] | 1.0 | 17.2 |  |  | 
COc1ccc(CCC2CCN(Cc3cc(=O)n4ccccc4n3)CC2)cc1 [Compound 52, 2-({4-[2-(4-Methoxyphenyl)ethyl]-1-piperidinyl}methyl)-4H-pyrido[1,2-a]pyrimidin-4-one] | 0.0 | 57.7 |  |  | 
CS(=O)(=O)c1ccc(NC(=O)c2cc(-c3ccc(F)cc3)nc3ccccc23)cc1 [Compound 28, 2-(4-Fluorophenyl)-N-[4-(methylsulfonyl)phenyl]-4-quinolinecarboxamide] | 4.5 | 99.6 |  |  | 
O=C(Nc1nc(CN2CCOCC2)cs1)c1cc(-c2ccc(Cl)s2)nc2ccccc12 [Compound 34, 2-(5-Chloro-2-thienyl)-N-[4-(4-morpholinylmethyl)-1,3-thiazol-2-yl]-4-quinoline-carboxamide] | 3.5 | 94.4 |  |  | 
Nc1nnc(SCc2nc3cc(Cl)ccc3n2Cc2ccccc2)s1 [Compound 43, 5-{[(1-Benzyl-5-chloro-1H-benzimidazol-2-yl)methyl]sulfanyl}-1,3,4-thiadiazol-2-amine] | 0.3 | 91.3 |  |  | 
Cc1ccc(NC(=O)c2cc(-c3cccs3)nc3c2cnn3C(C)C)cc1S(N)(=O)=O [Compound 9, 1-Isopropyl-N-(4-methyl-3-sulfamoylphenyl)-6-(2-thienyl)-1H-pyrazolo[3,4-b] pyridine-4-carboxamide] | 4.5 | 100 |  |  | 
CC/C(C)=N\NC(=O)c1cc(-c2cccs2)nc2ccccc12 [Compound 24, N′-[(2Z)-2-Butanylidene]-2-(2-thienyl)-4-quinoline-carbohydrazide] | 4.0 | 100 |  |  | 
CCCCOc1cc(C(=O)NCCN(CC)CC)c2ccccc2n1 [Compound 35, 2-Butoxy-N-[2-(diethylamino)ethyl]-4-quinoline-carboxamide, reference compound] |  | 100 |  |  | 
